Assays:
[1] = Effect on insulin release in rat pancreatic cells at 100 umol/L after 6 hrs by radioimmunoassay; type: functional
Adipocyte [2] = test: Effect on 2-deoxy-D-[1-3H]glucose transport in Sprague-Dawley rat adipocytes at 10 uM in absence of insulin by liquid scintillation counting; type: functional
[3] = Effect on insulin release in rat pancreatic cells at 10 umol/L after 6 hrs by radioimmunoassay; type: functional
Adipocyte [4] = test: Effect on 2-deoxy-D-[1-3H]glucose transport in Sprague-Dawley rat adipocytes at 10 uM in presence of insulin by liquid scintillation counting; type: functional
Adipocyte [5] = test: Effect on 2-deoxy-D-[1-3H]glucose transport in Sprague-Dawley rat adipocytes at 1 uM in absence of insulin by liquid scintillation counting; type: functional
Adipocyte [6] = test: Effect on 2-deoxy-D-[1-3H]glucose transport in Sprague-Dawley rat adipocytes at 100 uM in absence of insulin by liquid scintillation counting; type: functional
Adipocyte [7] = test: Effect on 2-deoxy-D-[1-3H]glucose transport in Sprague-Dawley rat adipocytes at 1 uM in presence of insulin by liquid scintillation counting; type: functional
[8] = Effect on insulin release in rat pancreatic cells at 1 umol/L after 6 hrs by radioimmunoassay; type: functional
Adipocyte [9] = test: Effect on 2-deoxy-D-[1-3H]glucose transport in Sprague-Dawley rat adipocytes at 100 uM in presence of insulin by liquid scintillation counting; type: functional
Adipocyte [10] = test: Increase in glucose absorption in Sprague-Dawley rat adipocytes at 100 uM by liquid scintillation counting relative to basal level; type: functional
[11] = Increase in insulin release in rat pancreatic cells at 100 umol/L after 6 hrs by radioimmunoassay relative to basal level; type: functional
[12] = Antiplatelet activity in human platelets assessed as inhibition of arachidonic acid-induced platelet aggregation; type: functional, cell-based
[13] = Antiplatelet activity in human platelets assessed as inhibition of ADP-induced platelet aggregation; type: functional, cell-based
Mus musculus = test: Protection against collagen-epinephrine-induced mortality in Chinese Kunming cerebral thrombosis mouse model assessed as survival rate at 60 mg/kg, po administered once daily for 7 days measured on day 7 within 15 mins of collagen-epinephrine challenge; type: functional

Row | SMILES | Activity [1] [uIU/ml] | Activity (Adipocyte [2]) [disintegrations/minute] | Activity [3] [uIU/ml] | Activity (Adipocyte [4]) [disintegrations/minute] | Activity (Adipocyte [5]) [disintegrations/minute] | Activity (Adipocyte [6]) [disintegrations/minute] | Activity (Adipocyte [7]) [disintegrations/minute] | Activity [8] [uIU/ml] | Activity (Adipocyte [9]) [disintegrations/minute] | fold change (FC) (Adipocyte [10]) | fold change (FC) [11] | IC50 [12] [µM] | IC50 [13] [µM] | survival at 60 mg/kg (Mus musculus) [%]
1 | COc1ccc(NC(=S)NS(=O)(=O)c2ccc(CCNS(=O)(=O)c3ccc(C)cc3)cc2)cc1 | 23.69 | 4381.35 | 23.5 | 5377.15 | 4425.16 | 4550.21 | 5026.34 | 24.48 | 5573.24 | – | – | – | – | –
2 | Cc1ccc(S(=O)(=O)NCCc2ccc(S(=O)(=O)NC(=S)Nc3ccc(Cl)cc3)cc2)cc1 | 22.25 | 6514.04 | 23.01 | 5512.62 | 5687.31 | 7061.15 | 5115.18 | 23.89 | 7832.17 | 1.59 | – | – | – | –
3 | CC(=O)Nc1ccc(S(=O)(=O)NCCc2ccc(S(=O)(=O)NC(=O)NC3CCC(C)CC3)cc2)cc1C (centres undefined) | 37.32 | 4573.8 | 27.67 | 6516.9 | 4302.19 | 5207.81 | 6123.02 | 23.57 | 7244.87 | – | – | – | – | –
4 | Cc1ccc(NC(=S)NS(=O)(=O)c2ccc(CCNS(=O)(=O)c3ccc(C)cc3)cc2)cc1 | 20.87 | 4401.01 | 24.24 | 5115.32 | 4428.46 | 4513.06 | 5627.67 | 21.99 | 5624.51 | – | – | – | – | –
5 | O=C(NC1CCCCC1)NS(=O)(=O)c1ccc(CCNS(=O)(=O)c2ccccc2)cc1 | 31.29 | – | 28.27 | – | – | – | – | 22.86 | – | – | – | – | – | –
6 | CC1CCC(NC(=O)NS(=O)(=O)c2ccc(CCNS(=O)(=O)c3ccccc3)cc2)CC1 (centres undefined) | 52.23 | – | 41.29 | – | – | – | – | 32.15 | – | – | – | – | – | –
7 | Cc1ccc(NC(=S)NS(=O)(=O)c2ccc(CCNS(=O)(=O)c3ccccc3)cc2)cc1 | 24.97 | 4385.12 | 27.71 | 5644.89 | 4377.95 | 4663.52 | 5319.5 | 27.99 | 5761.23 | – | – | – | – | –
8 | O=C(NC1CCCCC1)NS(=O)(=O)c1ccc(CCNS(=O)(=O)c2ccc(Br)cc2)cc1 | 65.98 | 4861.54 | 45.01 | 6002.46 | 4421.72 | 6556.61 | 5523.89 | 32.09 | 7896.14 | – | – | – | – | –
9 | COc1ccc(NC(=S)NS(=O)(=O)c2ccc(CCNS(=O)(=O)c3ccccc3)cc2)cc1 | 23.42 | 4118.78 | 24.98 | 7555.71 | 4179.5 | 4366.76 | 5708.43 | 22.86 | 6987.19 | – | – | – | – | –
10 | CC(=O)Nc1ccc(S(=O)(=O)NCCc2ccc(S(=O)(=O)NC(=O)NC3CCC(C)CC3)cc2)cc1 (centres undefined) | 28.52 | 5616.15 | 36.67 | 6200.35 | 4215.36 | 6736.82 | 5087.78 | 30.18 | 6812.33 | – | – | – | – | –
11 | CCC1=C(C)CN(C(=O)NCCc2ccc(S(=O)(=O)NC(=O)N[C@H]3CC[C@H](C)CC3)cc2)C1=O [GLIMEPIRIDE] | 48.14 | 7476.6 | – | 8593.72 | 5061.2 | 11068.51 | 6365.67 | – | 13255.41 | 2.5 | 2.03 | – | – | –
12 | O=S(=O)(NCCc1ccc(S(=O)(=O)NC(=S)Nc2ccc(Cl)cc2)cc1)c1ccccc1 | 26.06 | – | 32.1 | – | – | – | – | 28.94 | – | – | – | – | – | –
13 | CC(=O)Oc1ccccc1C(=O)O [ASPIRIN] | – | – | – | – | – | – | – | – | – | – | – | 0.35 | 9.34 | 63.6
14 | CC1CCC(NC(=O)NS(=O)(=O)c2ccc(CCNS(=O)(=O)c3ccc(Cl)cc3)cc2)CC1 (centres undefined) | 72.23 | 6411.7 | 41.29 | 6358.77 | 5869.85 | 6960.26 | 5972.68 | 38.15 | 7013.28 | 1.57 | 3.05 | – | – | –
15 | O=C(NC1CCCCC1)NS(=O)(=O)c1ccc(CCNS(=O)(=O)c2ccc(Cl)cc2)cc1 | 55.03 | 5878.83 | 41.18 | 5933.89 | 4576.35 | 6632.7 | 5217.31 | 33.95 | 6521.12 | – | – | – | – | –
16 | COc1cc(S(=O)(=O)NCCc2ccc(S(=O)(=O)NC(=O)NC3CCC(C)CC3)cc2)ccc1NC(C)=O (centres undefined) | 24.83 | 6547.93 | 24.47 | 6341.17 | 5294.78 | 7037.78 | 5587.26 | 24.57 | 7447.72 | 1.58 | – | – | – | –
17 | COc1ccc(NC(=S)NS(=O)(=O)c2ccc(CCNS(=O)(=O)c3ccc(Cl)cc3)cc2)cc1 | 26.09 | – | 24.36 | – | – | – | – | 24.05 | – | – | – | – | – | –
18 | O=S(=O)(NCCc1ccc(S(=O)(=O)NC(=S)Nc2ccc(Cl)cc2)cc1)c1ccc(Cl)cc1 | 26.07 | 4432.15 | 26.37 | 5436.58 | 4587.26 | 4763.58 | 5179.3 | 29.46 | 5764.25 | – | – | – | – | –
19 | COc1ccc(NC(=S)NS(=O)(=O)c2ccc(CCNS(=O)(=O)c3ccc(Br)cc3)cc2)cc1 | 26.17 | 4026.52 | 24.67 | 5234.61 | 4125.36 | 4335.26 | 5177.84 | 22.25 | 5069.25 | – | – | – | – | –
20 | Cc1ccc(S(=O)(=O)NCCc2ccc(S(=O)(=O)NC(=O)NC3CCCCC3)cc2)cc1 | 25.93 | 4174.59 | 22.7 | 5533.15 | 4281.3 | 4458.36 | 5374.21 | 22.45 | 5297.11 | – | – | – | – | –
